Like-named read-outs stand apart in the source and are kept apart here.
Key:
[1] = tested on: isolated working rat heart; conditions: R 950 ng/ml
[2] = tested on: isolated working rat heart
canine heart = conditions: for AH time / Heart rate / Mean arterial pressure: mean ± SE
Method: Fourteen adult mongrel dogs of either sex weighing between 19 and 25 kg were prepared for chronic electrophysiologic investigation by implanting epicardial electrodes and an indwelling aortic catheter. The dogs were fasted overnight and initially anesthetized with halothane on the day of surgery. After tracheal intubation, anesthesia was maintained with isoflurane and oxygen via positive pressure ventilation to keep end tidal carbon dioxide within the normal range. Muscular relaxation was induced by pancuronium. A right thoracotomy was performed in the fifth intercostal space. Three bipolar electrode pairs were sutured to the epicardial surface of the right atrial appendage and on the right and left ventricular apex (FIG. 5). A bipolar electrode was sutured to the right atrium close to the anatomical region of the sinoatrial node. A bipolar plunge electrode was placed into base of the interventricular septum to record a His bundle electrogram. An indwelling arterial catheter was placed into the aorta through the left femoral artery after surgical exposure of the artery at the inner side of the hind limb. All electrode leads were subcutaneously tunneled and exited through the skin between the scapulae. Incisions were closed in anatomic fashion and standard postoperative methods of analgesia were provided with 0.015 mg/kg of buprenorphine (Buprenex®, Reckitt & Colman, Hull, UK) and two times of 25 mg/kg cefazolin (Cefazolin Sodium®, SoloPak Laboratories, Elk Groove Village, Ill.) and dogs were allowed to recover from surgery for a period of seven days prior to testing.
Electrical signals from the bipolar electrodes, after suitable amplification in a custom built preamplifier (gain 1000), were filtered in a separate custom designed and built common mode rejection amplifier with a bandpass filter of 10-1000 Hz and individually adjusted for signal strength (maximal gain 400). […] Right atrial appendage (RA), right ventricular apex (RVA) and His bundle electrograms (HB) were recorded, simultaneously. […] All measurements of conduction times were made during spontaneous sinus rhythm.
The His bundle electrode (HBE) was advanced into the base of the interatrial septum from the aortic root. The electrode was advanced from a point located just behind and to the right of the origin of the right coronary artery. The HBE was slowly advanced parallel to the aorta, inferiorly and slightly anteriorly until a well discernible His potential was recorded. AV conduction (AH) interval was measured as the time difference (ms) between the onset of the initial rapid deflection in the RA electrogram to the beginning of the His potential in the HB electrogram. His-ventricular (HV) conduction time interval (ms) was measured from the beginning of the His potential (HBE) to the initial deflection of the QRS complex wave (earliest left ventricular activation) in a simultaneously recorded surface ECG lead II.
As an indicator of automaticity, sinus node recovery time (SNRT) was determined by pacing the right atrial appendage (30 s at 180 and 200 beats/min at 2 msec pulse duration; 2×threshold). SNRT was measured from the last pacing spike to the first spontaneous atrial activity on the His bundle electrogram after cessation of pacing (ms).
A timed extrastimulus (S2) was delivered 300 ms after the preceding pacing spike (S1).
Verapamil was dissolved in 5% dextrose and water ([…]).
During the postoperative period, each dog was trained to stand quietly in a sling during electrophysiological monitoring. Prior to measurement, electrical signals in each dog were monitored to verify the absence of spontaneous arrhythmias other-than normal respiratory sinus arrhythmias.
From the resting dog, 5 channel records were obtained at a sampling rate of 1 kHz per channel for 7 min to determine the following conduction intervals: AH, HV, QRS, QT and HR. A corrected QT interval [QTc=QT interval in ms/ (R-R interval in s)^1/2 ] was also calculated.

[3] = tested on: isolated working rat heart; remark: listed apart in the source

Question: Which results are given for `COc1ccc(CCN(C)CCC[C@](C#N)(c2ccc(OC)c(OC)c2)C(C)C)cc1OC` [R-verapamil, reference compound]?
Answer: Effect on peak systolic pressure (PSP), in words [1]: no apparent effect on PSP; Nature of cardiac effect (inotropic / chronotropic) ([1]; S 100 ng/ml): primarily chronotropic; Peak systolic pressure (PSP), significance vs predrug ([1]; S 100 ng/ml, R/S ratio 9.5): n.s.; Peak systolic pressure (PSP), significance vs predrug ([2]; R alone, R1-R4 (50-950 ng/ml cumulative)): n.s.; Cardiac output change, in words ([2]; R exceeding 200 ng/ml (R2)): Cardiac output appears to increase; AH time (canine heart; 0.1 mg/kg i.v., 0 min): 88 ± 5 ms; Heart rate (canine heart; 0.1 mg/kg i.v., 0 min): 103 ± 9 beats per min; Mean arterial pressure (canine heart; 0.1 mg/kg i.v., 0 min): 94 ± 3 mmHg; AH time (canine heart; 0.1 mg/kg i.v., 1 min): 94 ± 4 ms; Heart rate (canine heart; 0.1 mg/kg i.v., 1 min): 95 ± 7 beats per min; Mean arterial pressure (canine heart; 0.1 mg/kg i.v., 1 min): 95 ± 3 mmHg; AH time (canine heart; 0.1 mg/kg i.v., 2 min): 93 ± 5 ms; Heart rate (canine heart; 0.1 mg/kg i.v., 2 min): 98 ± 8 beats per min; Mean arterial pressure (canine heart; 0.1 mg/kg i.v., 2 min): 95 ± 2 mmHg; AH time (canine heart; 0.1 mg/kg i.v., 3 min): 93 ± 5 ms; Heart rate (canine heart; 0.1 mg/kg i.v., 3 min): 93 ± 7 beats per min; Mean arterial pressure (canine heart; 0.1 mg/kg i.v., 3 min): 95 ± 3 mmHg; AH time (canine heart; 0.1 mg/kg i.v., 4 min): 95 ± 5 ms; Heart rate (canine heart; 0.1 mg/kg i.v., 4 min): 91 ± 8 beats per min; Mean arterial pressure (canine heart; 0.1 mg/kg i.v., 4 min): 95 ± 3 mmHg; AH time (canine heart; 0.1 mg/kg i.v., 5 min): 95 ± 5 ms; Heart rate (canine heart; 0.1 mg/kg i.v., 5 min): 92 ± 8 beats per min; Mean arterial pressure (canine heart; 0.1 mg/kg i.v., 5 min): 95 ± 3 mmHg; AH time (canine heart; 0.2 mg/kg i.v., 0 min): 93 ± 4 ms; Heart rate (canine heart; 0.2 mg/kg i.v., 0 min): 106 ± 7 beats per min; Mean arterial pressure (canine heart; 0.2 mg/kg i.v., 0 min): 90 ± 3 mmHg; AH time (canine heart; 0.2 mg/kg i.v., 1 min): 99 ± 5 ms; Heart rate (canine heart; 0.2 mg/kg i.v., 1 min): 104 ± 8 beats per min; Mean arterial pressure (canine heart; 0.2 mg/kg i.v., 1 min): 97 ± 3 mmHg; AH time (canine heart; 0.2 mg/kg i.v., 2 min): 97 ± 5 ms; Heart rate (canine heart; 0.2 mg/kg i.v., 2 min): 99 ± 9 beats per min; Mean arterial pressure (canine heart; 0.2 mg/kg i.v., 2 min): 97 ± 3 mmHg; AH time (canine heart; 0.2 mg/kg i.v., 3 min): 98 ± 4 ms; Heart rate (canine heart; 0.2 mg/kg i.v., 3 min): 102 ± 9 beats per min; Mean arterial pressure (canine heart; 0.2 mg/kg i.v., 3 min): 94 ± 2 mmHg; AH time (canine heart; 0.2 mg/kg i.v., 4 min): 98 ± 4 ms; Heart rate (canine heart; 0.2 mg/kg i.v., 4 min): 96 ± 8 beats per min; Mean arterial pressure (canine heart; 0.2 mg/kg i.v., 4 min): 96 ± 2 mmHg; AH time (canine heart; 0.2 mg/kg i.v., 5 min): 99 ± 5 ms; Heart rate (canine heart; 0.2 mg/kg i.v., 5 min): 95 ± 9 beats per min; Mean arterial pressure (canine heart; 0.2 mg/kg i.v., 5 min): 92 ± 2 mmHg; AH time (canine heart; 0.4 mg/kg i.v., 0 min): 97 ± 4 ms; Heart rate (canine heart; 0.4 mg/kg i.v., 0 min): 123 ± 5 beats per min; Mean arterial pressure (canine heart; 0.4 mg/kg i.v., 0 min): 86 ± 2 mmHg; AH time (canine heart; 0.4 mg/kg i.v., 1 min): 106 ± 5 ms; Heart rate (canine heart; 0.4 mg/kg i.v., 1 min): 108 ± 6 beats per min; Mean arterial pressure (canine heart; 0.4 mg/kg i.v., 1 min): 94 ± 2 mmHg; AH time (canine heart; 0.4 mg/kg i.v., 2 min): 106 ± 4 ms; Heart rate (canine heart; 0.4 mg/kg i.v., 2 min): 109 ± 5 beats per min; Mean arterial pressure (canine heart; 0.4 mg/kg i.v., 2 min): 98 ± 3 mmHg; AH time (canine heart; 0.4 mg/kg i.v., 3 min): 104 ± 4 ms; Heart rate (canine heart; 0.4 mg/kg i.v., 3 min): 106 ± 7 beats per min; Mean arterial pressure (canine heart; 0.4 mg/kg i.v., 3 min): 97 ± 3 mmHg; AH time (canine heart; 0.4 mg/kg i.v., 4 min): 104 ± 5 ms; Heart rate (canine heart; 0.4 mg/kg i.v., 4 min): 108 ± 7 beats per min; Mean arterial pressure (canine heart; 0.4 mg/kg i.v., 4 min): 99 ± 3 mmHg; AH time (canine heart; 0.4 mg/kg i.v., 5 min): 105 ± 5 ms; Heart rate (canine heart; 0.4 mg/kg i.v., 5 min): 111 ± 6 beats per min; Mean arterial pressure (canine heart; 0.4 mg/kg i.v., 5 min): 98 ± 3 mmHg; Interaction between MAP and HR (multiple linear regression), in words (canine heart; increase in HR against drop in MAP): least increase in heart rate measured against a drop in blood pressure; Cardiac output (CO), significance vs baseline ([3]; R1 (50 ng/ml)): n.s.; Heart rate (HR), significance vs baseline ([3]; R1 (50 ng/ml)): n.s.; Peak systolic pressure (PSP), significance vs baseline ([3]; R1 (50 ng/ml)): n.s.; Cardiac output (CO), significance vs baseline ([3]; R2 (200 ng/ml)): n.s.; Heart rate (HR), significance vs baseline ([3]; R2 (200 ng/ml)): n.s.; Peak systolic pressure (PSP), significance vs baseline ([3]; R2 (200 ng/ml)): n.s.; Cardiac output (CO), significance vs baseline ([3]; R3 (450 ng/ml)): n.s.; Heart rate (HR), significance vs baseline ([3]; R3 (450 ng/ml)): n.s.; Peak systolic pressure (PSP), significance vs baseline ([3]; R3 (450 ng/ml)): n.s.; Peak systolic pressure (PSP), significance vs baseline ([3]; R4 (950 ng/ml)): n.s.; Effect on peak systolic pressure (PSP), in words ([3]; increasing levels of R): remains unaffected by increasing levels of R

— patent US5955500A (G. D. Searle & Co., priority 1997, dated 1999)
